Measurements published in patent publication US20230271142A1, “METHODS OF PREPARING SOLID PARTICULATE MATERIALS” (MICROPORE TECHNOLOGIES LIMITED, priority 2020, published 2023).

Assay: Particle size distribution of atorvastatin particles produced via LDC (laser diffraction)
Type: physicochemical
Method: 0.6 g of Atorvastatin was dissolved in 10 ml methanol in a beaker at room temperature to make up the organic phase. 0.5% HPMC (Mn 10,000) in DI water was used as the aqueous phase. The LDC was configured with a membrane with 10 μm pores, spaced 200 μm apart in a square grid, in a ring. The stirrer speed was set at […] (1750 rpm), and the organic phase injection rate set at 10 ml/min. The line was primed with organic phase and the CP was poured into the stirred cell. Addition was started and ended when 3 ml of DP was injected. The solution was left to stir until precipitation was visible. The crystals were analyzed via microscopy and Laser Diffraction (Beckmann Coulter LS-230).

[1] = 10 μm pores, methanol solution into 0.5% HPMC water

- Span: 1.66
- Volume Mean (10 μm pores): 10.24 μm
- D10 [1]: 4.38 μm
- D50 [1]: 8.78 μm
- D90 [1]: 18.92 μm
Compound: CC(C)c1c(C(=O)Nc2ccccc2)c(-c2ccccc2)c(-c2ccc(F)cc2)n1CC[C@@H](O)C[C@@H](O)CC(=O)O [Atorvastatin]
